Article PMC10117725, “From an Hsp90 - binding protein to a peptide drug” (microLife, 2022)
Where no end group is shown, it is not given here.

What was measured:
[1] = tested on: human peripheral blood mononuclear cells (PBMCs); assay: Cytokine induction in PBMCs (bead-based immunoassay); format: cell-based; conditions: IL-6, IL10, IL-12p70, IL12-p40, IL-23, TNFα, IL-1ß, IL-1RA, IP-10, TARC; 20 h
Procedure: Human peripheral blood mononuclear cells (PBMCs) from buffy coat blood samples of healthy donors were stimulated with the indicated doses of L15 and L13 for 20 h. For the subsequent bead-based immunoassay, the cell culture supernatants of a total of four buffy coats per immunoassay were used. Each of the stimulations was performed in biological duplicates. The secreted cytokines were then identified and quantified using the immunofluorescent bead-based immunoassay LEGENDplex® Human Macrophage/Microglia Panel (13-plex) and the corresponding Data Analysis Software from BioLegend. Muramyl Dipeptide (MDP) which activates the NOD-2 receptors was used as the positive control.

[2] = molecular target: T1, Lpl1 (Staphylococcus aureus, UniProt Q2FJK4); assay: Dot blot / immunoblot interaction with Lpl1-his; format: binding; conditions: 2 µg blotted, anti-6X His immunodetection
T1 construct: made in house
Procedure: Two µg of each peptide was blotted (dot blot) directly on PDV nitrocellulose membrane and blocked with ROTI®Block (Carl Roth, Germany). After washing, the membrane was then incubated with 20 μg of recombinant Hsp90α (Abcam)/Lpl1-his protein at 4°C overnight. In case of interaction studies with Hsp90α, α-Hsp90α (produced in mouse, Abcam) was used as the primary antibody and for interaction studies with Lpl1-his, Anti-6X His tag antibody (also produced in mouse, Sigma-Aldrich, Germany) was used. Alkaline phosphatase conjugated goat-α-mouse IgG (Sigma-Aldrich, Germany) served as the secondary antibody. Detection was done using BCIP®/NBT solution (Sigma, Germany). Lpl1-his was isolated and purified as described in our previous paper (Tribelli et al. [2020]).

[3] = tested on: total ATPase activity in HaCaT cells; assay: Total ATPase activity in HaCaT cells; format: cell-based, human; conditions: Fig. S4
[4] = tested on: S. aureus Newman; assay: Mouse S. aureus Newman bacteremia model; format: in vivo, NMRI mice
Procedure: About 8- to 10-week-old female NMRI mice were purchased from Envigo (Venray, the Netherlands) and stored under standard temperature, light, and nutrition conditions in the animal facility of the Department of Rheumatology and Inflammation Research, University of Gothenburg. […] To study the effect of L15 on S. aureus bacteremia two separate experiments were performed. The mice were treated intraperitoneally with L15 (10 mg/kg) in 200 µl of PBS every 12 h, starting 2 h before inoculation with bacteria and continuing until the animals were sacrificed. Mice were challenged with septic dose of 2 × 10^6 CFU/mouse of S aureus Newman. To induce the S. aureus systemic infection in NMRI mice, 0.2 ml of S. aureus Newman suspension was inoculated intravenously into the tail vein of the mice. During the course of the experiments, the mice were regularly weighed until the mice were sacrificed. After sacrificing the mice at day 7, kidneys from mice were aseptically removed, homogenised, serially diluted with PBS and enumerated to quantify the bacterial CFUs.

[5] = tested on: S. aureus USA300 internalization by HaCaT cells; assay: S. aureus USA300 invasion (internalization) into HaCaT keratinocytes; format: cell-based, human; conditions: for relative invasion (intracellular USA300 count) in HaCaT at 20 µM: peptide 20 µM; for relative invasion (intracellular USA300 count) in HaCaT at 50 µM: peptide 50 µM; for decrease in uptake/invasion of S. aureus USA300 by HaCaT cells compared to untreated control: preincubation with L15 20 µM, L13 30 µM, geldanamycin 5 µM or α-Hsp90α antibody, MOI 30; for concentration from which a significant reduction of intracellular USA300 was observed: tested 0 to 50 µM in HaCaT
Procedure: The invasion protocol was adapted from our previous papers (Nguyen et al. [2015], Tribelli et al. [2020]). About 5 × 10^5 Keratinocytes were seeded in a 24 well plate (Greiner, Frickenhausen, Germany) to attain a monolayer of ∼10^6 cells/well. Staphylococcusaureus was grown overnight at 37°C, centrifuged and suspended in invasion medium (DMEM with 10% FBS for HaCaT and K-SFM for NTERT-1 cells). The adherent keratinocytes were […], or 5 µM geldanamycin (Sigma-Aldrich, Germany) or monoclonal antibodies specific against Hsp90α (α‐Hsp90α, Abcam) for 1 h. After 1 h, 100 µl of bacterial suspension was added to each well to attain a MOI (multiplicity of infection) of 30 and incubated with cells for 1.5 h. Subsequently, the extracellular bacteria were killed with treatment of 2.5 μg/ml lysostaphin (Sigma-Aldrich, Germany) for 1.5 h. The cells were then washed, lysed, mechanically detached by scraping, diluted, and enumerated on TSA (Tryptic Soy Agar) plates to quantify the intracellular bacteria.

[6] = tested on: Staphylococcus aureus; assay: Hemolysin activity on sheep blood agar; format: cell-based; conditions: impregnated discs on sheep blood agar, 37°C overnight
Procedure: About 6 mm Whatman empty Antibiotic Assay Discs were impregnated with L15 or L13 and allowed to dry. Once dried, the discs were placed on sheep blood agar plates, inoculated with S. aureus and incubated at 37°C overnight. The halo obtained was measured and compared.

[7] = tested on: S. aureus USA300 infected PBMCs; assay: Cytokine release of S. aureus USA300 infected PBMCs (ELISA); format: cell-based, human; conditions: L15 20 µM, L13 30 µM, geldanamycin 5 µM; 20 h; n = 5; vs unstimulated infected PBMCs
[8] = tested on: S. aureus Newman; assay: Galleria mellonella larvae infection model, S. aureus Newman; format: in vivo; conditions: peptides 60 mg/kg, vancomycin 20 mg/kg, injected 1 h before 10^6 cfu; 37°C
Procedure: (§1) Galleria mellonella larvae, purchased from Feeders & more GmbH, Germany, were sorted based on weight and used within one week. Ten larvae per group with weight average of 500 mg/larvae were injected with bacteria and/or peptides on its last proleg using a BD insulin syringe. The dosage used for the experiment were 60 mg/kg for peptides, 5 mg/kg of geldanamycin and 20 mg/kg for vancomycin. Each larva was injected with 10 µl of L15 (last left proleg) 1 h before administration of 10^6 cfu S. aureus (last right proleg). The larvae were maintained at 37°C and observed for mortality every day over the course of 5 days.

[9] = tested on: S. aureus USA300; assay: Galleria mellonella larvae infection model, S. aureus USA300; format: in vivo
Procedure: as §1

[10] = tested on: MONO-MAC-6 (MM6) cells; assay: MTT cytotoxicity in MM6 cells; format: cell-based, human; conditions: 24 h
Procedure: MTT (3-(4,5-dimethylthiazol-2-yl)-2,5-diphenyl tetrazolium bromide) assay was employed to analyze the cytotoxicity of peptides and geldanamycin to the cells. 5 × 10^5 cells were seeded in a 96 flat bottom well plate and incubated for 2.5 or 24 h at 37°C with 5% CO2. The cells were then treated with increasing concentration (0 to 200 µM) of peptides or geldanamycin for 24 h. After the incubation, 10 μl of the MTT labelling reagent is added to each well to attain a final concentration 0.5 mg/ml, followed by 4 h incubation. Metabolically active cells convert the yellow tetrazolium salt to purple formazan crystals, which were solubilized using the solubilization solution (DMSO) and measured for absorbance at λmax/λref–570/690 nm (Saising et al. [2018]).

T1 sequence (Q2FJK4 23-257): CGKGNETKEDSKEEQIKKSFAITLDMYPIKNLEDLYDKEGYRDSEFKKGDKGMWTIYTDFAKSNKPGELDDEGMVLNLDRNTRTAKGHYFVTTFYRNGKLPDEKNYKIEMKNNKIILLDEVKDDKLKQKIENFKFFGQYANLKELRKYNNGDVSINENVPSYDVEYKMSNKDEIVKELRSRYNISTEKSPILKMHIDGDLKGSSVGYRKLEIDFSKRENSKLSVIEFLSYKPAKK

Sequence	cytokine inducing activity in PBMCs [1]	direct interaction with Lpl1 [2]	effect on total ATPase activity in HaCaT cells [3]	survival during the 7-day observation period ([4]; L15 10 mg/kg i.p. every 12 h, 40% of the control group died)	bacterial load in the kidneys ([4]; L15 10 mg/kg i.p. every 12 h, day 7, vs PBS control)	weight loss of infected mice ([4]; L15 10 mg/kg i.p. every 12 h from 2 h before i.v. 2 × 10^6 CFU/mouse, 7 days, vs PBS control)	reduction of lethality of S. aureus in the mouse model ([4]; mouse bacteremia model)	relative invasion (intracellular USA300 count) in HaCaT at 20 µM ([5]; untreated control 1.0 ± 0.0)	relative invasion (intracellular USA300 count) in HaCaT at 50 µM ([5]; untreated control 1.0 ± 0.0)	decrease in uptake/invasion of S. aureus USA300 by HaCaT cells compared to untreated control [5]	concentration from which a significant reduction of intracellular USA300 was observed [5] [µM]	effect on hemolysis activity of S. aureus [6]	IL-6 production of infected PBMCs [7]	larvae surviving on day 5, S. aureus Newman [8] [%]	reduction of lethality of S. aureus in the insect model ([9]; G. mellonella model)	percentage of viable cells, MM6, 1 µM ([10]; 1 µM) [%]	percentage of viable cells, MM6, 200 µM ([10]; 200 µM) [%]	relative invasion (intracellular USA300 count) in HaCaT at 40 µM ([5]; peptide 40 µM, untreated control 1.0 ± 0.0)	larvae surviving on day 5, S. aureus USA300 ([9]; peptides 60 mg/kg injected 1 h before 10^6 cfu, 37°C, 10 larvae per group, three biological replicates) [%]
TAKGHYFVTTFYRNG [L15]	relatively inert	interact directly	could not detect any significant inhibition	all mice treated with L15 survived	No significant difference	significantly reduced	about 40%	0.33 ± 0.24	0.40 ± 0.05	50–60%	≥ 20	nor was hemolysis activity markedly affected	significantly increased	36	about 30%				
GHYFVTTFY [L13]		interact directly	could not detect any significant inhibition					0.67 ± 0.05	0.73 ± 0.18	50–60%	≥ 20	nor was hemolysis activity markedly affected	significantly increased	46		106.71 ± 6.40	82.43 ± 8.59	0.41 ± 0.03	23
